Data reported in patent US20150289512A1, “METHOD FOR PROMOTING PLANT GROWTH” (SUMITOMO CHEMICAL COMPANY, LIMITED, priority 2012, published 2015).

Columns and labels:
[1] = system: Rice (variety: Nipponbare); experiment: Test Example 2: promotion of root growth by hydroponics of rice, 1 ppm; assay type: in vivo; details: Oryza sativa, hydroponic solution containing the test compound at 1 ppm, average of 4 or 5 individuals, read-out: Relative value of length of seminal root (%-untreated control plot)
Procedure, shortened: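 Surface-sterilized Nipponbare seeds germinated 3 days in dark at 28° C in ¼ Hoagland solution with compound at 1 ppm (DMSO 1/10,000; DMSO-only control), then grown hydroponically 3 days at 26° C, 4,000 lux, 16 h day. Seminal root length averaged over 4–5 plants.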

[2] = system: Rice (variety: Nipponbare); experiment: Test Example 1: promotion of root growth by hydroponics of rice, 10 ppm; assay type: in vivo; details: Oryza sativa, hydroponic solution containing the test compound at 10 ppm, average of 4 or 5 individuals, read-out: Relative value of length of seminal root (%-untreated control plot)
Procedure, shortened: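 Surface-sterilised seeds germinated 3 days in the dark at 28° C in hydroponic solution with compound at 10 ppm, then grown 3 days hydroponically with compound at 10 ppm (26° C, 4,000 lux, 16 h day, 50% humidity). Seminal root length measured by image analysis, averaged over 4 or 5 plants per plot.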

| SMILES | change in vivo at 1 ppm [1] [%] | change in vivo at 10 ppm [2] [%] |
| --- | --- | --- |
| COC(=O)c1oc2ccc(C(F)(F)F)cc2c1O [Compound 50] | > 5 | > 5 |
| COC(=O)c1oc2ccc(C(F)(F)F)cc2c1N(C)C [Compound 62] | > 5 | > 5 |
| CNC(=O)c1cc2cc(C(F)(F)F)ccc2o1 [Compound 52] | > 5 | > 5 |
| COC(=O)c1oc2ccccc2c1N(C(C)=O)C(C)=O [Compound 41] | > 5 |  |
| COC(=O)c1nc2cc(C(F)(F)F)ccc2o1 [Compound 17, methyl 5-trifluoromethylbenzoxazole-2-carboxylate] | > 5 |  |
| COC(=O)c1oc2ccc(C(F)(F)F)cc2c1NC(=O)C(F)(F)F [Compound 65] | > 5 |  |
| O=C(OCc1ccccc1)c1cc2cc(C(F)(F)F)ccc2o1 [Compound 56] | > 5 | > 5 |
| COC(=O)c1oc2ccc(C(F)(F)F)cc2c1NC(C)=O [Compound 63] | > 5 | > 5 |
| COC(=O)c1cc2c(C(F)(F)F)cccc2o1 [Compound 45] | > 5 |  |
| CNC(=O)c1oc2ccc(C(F)(F)F)cc2c1C(F)(F)F [Compound 75] | > 5 | > 5 |
| O=C(NCc1ccccc1)c1oc2ccc(C(F)(F)F)cc2c1C(F)(F)F [Compound 77] | > 5 |  |
| Cc1c(C(=O)O)oc2ccccc12 [Compound 36] | > 5 | > 5 |
| NC(=O)c1oc2ccc(C(F)(F)F)cc2c1C(F)(F)F [Compound 74] | > 5 | > 5 |
| COC(=O)c1cc2ccccc2o1 [Compound 1] | > 5 |  |
| COC(=O)c1cc2cc(C(F)(F)F)ccc2o1 [Compound 3, methyl 5-(trifluoromethyl)benzofuran-2-carboxylate] | > 5 |  |
| O=C(O)c1cc2c(C(F)(F)F)cccc2o1 [Compound 43] | > 5 | > 5 |
| COC(=O)c1oc2ccc(C(F)(F)F)cc2c1C [Compound 33] | > 5 | > 5 |
| O=C(NCc1ccccc1)c1cc2cc(C(F)(F)F)ccc2o1 [Compound 54] | > 5 | > 5 |
| COC(=O)c1oc2ccccc2c1C(F)(F)F [Compound 83] | > 5 |  |

| SMILES | change in vivo at 1 ppm [1] [%] | change in vivo at 10 ppm [2] [%] |
| --- | --- | --- |
| O=C(Nc1ccccc1)c1oc2ccc(C(F)(F)F)cc2c1C(F)(F)F [Compound 76] | > 5 | > 5 |
| COC(=O)c1oc2ccc(C(F)(F)F)cc2c1NS(C)(=O)=O [Compound 67] | > 5 | > 5 |
| COC(=O)c1oc2ccc(C(F)(F)F)cc2c1C(F)(F)F [Compound 70] | > 5 |  |
| O=C(OCc1ccccc1)c1oc2ccc(C(F)(F)F)cc2c1C(F)(F)F [Compound 73] | > 5 |  |
| O=C(O)c1nc2c(F)cc(F)cc2s1 [Compound 86] | > 5 | > 5 |
| Cc1c(C(=O)O)oc2ccc(C(F)(F)F)cc12 [Compound 34] | > 5 |  |
| NC(=O)c1cc2cc(C(F)(F)F)ccc2o1 [Compound 51] | > 5 | > 5 |
| O=C(Nc1ccccc1)c1cc2cc(C(F)(F)F)ccc2o1 [Compound 53] | > 5 | > 5 |
| CCOC(=O)c1oc2ccc(C(F)(F)F)cc2c1C(F)(F)F [Compound 71] |  | > 5 |
| COC(=O)c1oc2ccccc2c1NC(C)=O [Compound 40] | > 5 | > 5 |
| COC(=O)c1oc2ccccc2c1C [Compound 37] | > 5 | > 5 |
| CCOC(=O)c1oc2cccc(O)c2c1C [Compound 80] | > 5 | > 5 |
| NC(=O)c1oc2ccccc2c1C(F)(F)F [Compound 85] | > 5 | > 5 |
| O=C(O)c1oc2ccccc2c1C(F)(F)F [Compound 82] | > 5 | > 5 |
| CCOC(=O)c1cc2c(C(F)(F)F)cccc2o1 [Compound 44] | > 5 | > 5 |
| COC(=O)c1oc2ccc(C(F)(F)F)cc2c1NS(=O)(=O)c1ccccc1 [Compound 68] | > 5 | > 5 |
| O=C(Oc1ccccc1)c1cc2cc(C(F)(F)F)ccc2o1 [Compound 55] | > 5 | > 5 |
| COC(=O)c1oc2ccccc2c1NC(=O)C(F)(F)F [Compound 39] |  | > 5 |
| O=C(O)c1oc2ccc(C(F)(F)F)cc2c1C(F)(F)F [Compound 69] | > 5 | > 5 |
